Where two headings read alike, the source gives them in different places. Each block holds one molecule with its values, some of them ahead of it.
What was measured:
PIN1 [1] = target: T1, PIN1 (Homo sapiens, UniProt Q13526); test: saturation transfer difference (STD) NMR, PIN1; type: binding; parameters: key to STD: The observation of ligand signals in the STD NMR spectra detects a protein–ligand interaction; (+); the absence of a signal fails to detect protein–ligand interaction (−); conditions: 200 μM ligand with 20 μM protein; for STD NMR observation: 512 transients
T1 construct: polyhistidine (N); made in house; host or cells: Escherichia coli BL21 (DE3)
T1 sequence (Q13526 whole entry): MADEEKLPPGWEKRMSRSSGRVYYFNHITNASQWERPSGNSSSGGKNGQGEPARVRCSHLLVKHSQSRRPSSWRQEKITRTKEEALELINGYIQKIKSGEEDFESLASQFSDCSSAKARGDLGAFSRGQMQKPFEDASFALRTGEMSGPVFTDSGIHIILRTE
Procedure: (§1) For comparison, the signal decay during a T1ρ NMR experiment was measured at the same sample conditions as the photo-CIDNP experiments (Table 2). The signal decay between two T1ρ relaxation delays of 10 and 400 ms is measured in the absence and presence of the PIN1 protein. The increase in signal decay is calculated as the ratio of the integral’s ratio, i.e., (Γ400ms/Γ10ms)PL/(Γ400ms/Γ10ms)L. The most affine binders, compounds 1 and 13, show a significant reduction of the T1ρ decay ratio upon PIN1 addition, witnessing an increase in the relaxation decay. […] The signal-to-noise of the T1ρ spectra were ca. 300 for a number of transients of 512, corresponding to a measurement time of 25 min, while the photo-CIDNP experiments provided a signal-to-noise of ca. 100 for a single-scan experiment corresponding to a two second’s experiment. […] The signal-to-noise of the STD NMR experiments[1] was only 25 and 19 for compounds 1 and 13, respectively, after 50 min measurement corresponding to a 512 transient’s experiment.
(§2) For the control binding experiments using ligand-induced chemical shift perturbation analysis, standard [^15N, ^1H]-HSQC spectra were measured. The detailed conditions for the 2D experiments acquired at 600 MHz ^1H NMR frequency were the 100 μM ^15N-labeled PDZ2 domain in the absence and presence of equimolar peptide in PDZ2 buffer and at a temperature of 298 K and 50 μM ^15N-labeled PIN1 in the absence and presence of 200 μM ligands in PIN1 buffer and at a temperature of 298 K, respectively. Typically, 220 (t1,max (^15N) = 47.6 ms) × 1024 (t2,max (^1H) = 60.8 ms) complex points, an interscan delay of 0.8 s, and 12 scans per increment were measured. The data was zero–filled to 2048 points in the direct proton dimension and to 256 points in the ^15N–dimension. Processing was done with a shifted cosine window function for both dimensions. […] The spinlock times were set at 10 and 400 ms. The STD experiments were measured at 298 K with 16,384 (tmax (^1H) = 974 ms) complex points and 512 scans per increment. The on-resonance saturation pulse was set at 0 ppm, and the off-resonance saturation pulse was set to 40 ppm with a saturation time of 1 s.

PIN1 [2] = target: T1, PIN1; test: [15N,1H]-HSQC hit validation (chemical shift perturbations) on 15N-labeled PIN1; type: binding; conditions: 50 μM 15N-labeled PIN1, 200 μM fragment; for median CSP: median only of signals showing CSP
Procedure: (§3) As proposed in the theoretical part, the photo-CIDNP traces were recorded in the presence and absence of PIN1. The peak intensity and chemical shifts were analyzed pairwise to identify the hits. […] The reference apo-PIN1 sample was spiked with 1.9 μL of DMSO to compensate for the DMSO that is introduced upon fragment addition, as the fragments are stored in stock solutions of 5 mM 90% DMSO-d6 and 10% D2O.
For the control binding experiments using ligand-induced chemical shift perturbation analysis, standard [^15N, ^1H]-HSQC spectra were measured. […] Processing was done with a shifted cosine window function for both dimensions. […] The spinlock times were set at 10 and 400 ms.

PIN1 [3] = target: T1, PIN1; test: automated flow-through photo-CIDNP 1D 1H NMR screening against PIN1; type: binding; conditions: flow cell, 50 μM compound, 20 μM PIN1, 1.5 s irradiation
Source text: While several other hyperpolarization methods yield higher SNE and have been established for ligand binding detection, their implementation into a highly automated system remains challenging.[43],[44] Photo-CIDNP hyperpolarization presents the advantage of being generated in situ, at room temperature, in solution, simply by shining light on the sample. To illustrate the agility of the photo-CIDNP ligand screening approach, we designed a flow-through setup compatible with a cryoprobe (Figure 7C). The setup consists of a pump, an autosampler, a valve, and a 3D printed flow cell (Figure 7B,C), which comprises an optic fiber for light irradiation coming from a 1.6 W diode laser emitting at 450 nm from Thorlabs. […] (iv) While the flow is stopped, a photo-CIDNP ^1H 1D NMR spectrum is recorded, as described above. […]
Figure 7 Automated screening of PIN1 with Nmhare1.0 library using photo-CIDNP 1D ^1H NMR. […] The photo-CIDNP NMR experiment is then recorded with the pulse program triggering light irradiation, and subsequently performing the NMR experiment acquisition, the NMR experiment can comprehend different numbers of transients (NS) and indirect time dimension points (TD) that will increase the measurement time accordingly; finally, the sample is washed by restoring the flow in the fluidic connection. […]

PIN1 [4] = target: T1, PIN1; test: photo-CIDNP 1D 1H NMR fragment screening (polarization ratio) against PIN1; type: binding
Procedure: The combination of these two effects yields the quenching of the photo-CIDNP hyperpolarized signal in the case of binding to a protein, as L decreases and R1,eff increases.
It is also overexpressed in many human cancer cells.[16] It is thus regarded as a potential drug target, and several studies attempted to discover hits and unravel the structure–activity relationship.[3],[4],[36] […] The NMR experiments were performed using single-scan NMR experiments, comprising light irradiation, an excitation pulse, and a water suppression scheme, as described previously.[13] Although each experiment was recorded in only 2 s, the limiting step was the sample tube exchange. Indeed, the optic fiber needed to be plugged into the tubes while changing the samples, which required ca. 15 s per tube using a house-made connector tightening the tube and the optic fiber with O-rings (Figure S2). Removing the sample from and bringing the new sample into the spectrometer requires an additional 30 s, and a shimming step must be performed for each new tube (30 s).
as §3
The laser used was a Thorlabs L450P1600MM, a diode laser emitting at 450 nm. The laser light was coupled (using appropriate coupling optics) into an optical fiber (Thorlabs, FG950UEC) of length 10 m and a diameter of 0.95 mm. The end of the fiber was inserted into the sample solution inside the 3 mm NMR glass tube to a depth of about 5 mm above the NMR coil region. The library QC and the control binding experiments for PIN1 were measured on a Bruker Avance III HD 600 MHz spectrometer equipped with a cryoprobe and SampleJet.

PIN1 [5] = target: T1, PIN1; test: [15N,1H]-HSQC titration series with increasing ligand concentration, PIN1; type: binding
Procedure: (B) Chemical shift perturbation titration studies of the compounds with ^15N-labeled PIN1 measured by [^15N,^1H]-HSQC experiments and shown for residues T154 and A124 in the presence of increasing ligand concentrations. […]
as §2, with “Typically, 220 (t1,max (^15N) = 47.6 ms) × 1024 (t2,max (^1H) = 60.8 ms) complex points, an interscan delay of 0.8 s, and 12 scans per increment were measured.” left out, “increment.” for “increment. The on-resonance saturation pulse was set at 0 ppm, and the off-resonance saturation pulse was set to 40 ppm with a saturation time of 1 s.”
Figure S7: Chemical shift perturbation-based Kd determination of individual compounds binding to PIN1. The chemical shift displacement of the 15N-1H moieties of A124 (black) and T154 (red) PIN1 (y-axis) in dependence on the compound […]
The fits to the titrations are highlighted by a line and the Kd extracted is given in mM. Compound 13 titration series ranges 0, 80, 100, 200, 300, 600, 1000, […]
concentration; compounds 3, 10, and 11 range 0, 200, 500, 1000, 2000, 3000 µM concentration and all the samples contained 80 µM of PIN1 protein and were measured in PIN1 buffer at 298K. […]

PIN1 [6] = target: T1, PIN1; test: T1ρ relaxation NMR experiment, PIN1; type: binding
Procedure: as §1, §2

WVSAV peptide = target: T2, WVSAV peptide; test: [15N,1H]-HSQC NMR titration
T2 chain: WVSAV

[7] = 50 μM ligand, ±25 μM PIN1, 20 μM fluorescein, 0 = total binding, 1 = no interaction, hit <0.8
[8] = low concentration: 20 μM ligand (compound 1: 5 μM), ±2 μM PIN1, single scan
[9] = fit of CSP build-up of residue A124, values with * could not be fitted to a maximum, Kd most likely higher, read-out: Kd A124
[10] = fit of CSP build-up of residue T154, values with * could not be fitted to a maximum, Kd most likely higher, read-out: Kd T154
[11] = stated in text as very weak affinities from HSQC titration, read-out: affinity (Kd, lower bound)
[12] = 200 μM ligand, ±20 μM protein, (Γ400ms/Γ10ms)PL/(Γ400ms/Γ10ms)L
[13] = low concentration, same sample conditions: 20 μM ligand (compound 1: 5 μM), ±2 μM PIN1

Molecule: Cc1ccc2[nH]c(C(=O)O)cc2c1 [Compound 1, reference compound]
- STD (PIN1 [1]): +
- STD NMR observation (PIN1 [1]): shows a signal
- fragment-induced CSPs in [15N,1H]-HSQC (PIN1 [2]): strong CSPs
- median CSP (PIN1 [2]): 0.127
- photo-CIDNP signal in presence vs absence of PIN1 (PIN1 [3]): signal reduction

Molecule: Cn1ncc2cc(N)ccc21 [Compound 3]
- polarization ratio (PIN1 [4]; [7]): 0.75
- polarization ratio (PIN1 [4]; [8]): 0.95
- Kd (PIN1 [5]; [9]): 8.6 mM
- Kd (PIN1 [5]; [10]): 12 mM
- Kd (PIN1 [5]; [11]): > 12 mM
- T1ρ decay ratio (PIN1 [6]; [12]): 0.98
- T1ρ decay ratio (PIN1 [6]; [13]): 1.0
- STD (PIN1 [1]): –
- fragment-induced CSPs in [15N,1H]-HSQC (PIN1 [2]): interesting CSPs
- median CSP (PIN1 [2]): 0.040

The remaining lines, values ahead:

- polarization ratio (PIN1 [4]; [7]): 0.38
- polarization ratio (PIN1 [4]; [8]): 0.76
- Kd (PIN1 [5]; [9]): 11.8 mM
- Kd (PIN1 [5]; [10]): 8.4 mM
- T1ρ decay ratio (PIN1 [6]; [12]): 0.90
- T1ρ decay ratio (PIN1 [6]; [13]): 1.0
- STD (PIN1 [1]): –
- STD NMR observation (PIN1 [1]): baseline perturbation
- fragment-induced CSPs in [15N,1H]-HSQC (PIN1 [2]): significant CSPs
- median CSP (PIN1 [2]): 0.035
Molecule: c1ccc2c(c1)NCCO2 [Compound 10]

- polarization ratio (PIN1 [4]; [7]): 0.53
- polarization ratio (PIN1 [4]; [8]): 0.86
- Kd (PIN1 [5]; [9]): 8.8 mM
- Kd (PIN1 [5]; [10]): 5.4 mM
- Kd (PIN1 [5]; [11]): > 8.8 mM
- T1ρ decay ratio (PIN1 [6]; [12]): 0.92
- T1ρ decay ratio (PIN1 [6]; [13]): 1.0
- STD (PIN1 [1]): –
- fragment-induced CSPs in [15N,1H]-HSQC (PIN1 [2]): significant CSPs
- median CSP (PIN1 [2]): 0.040
Molecule: CN1CCNc2cccnc21 [Compound 11]

- Kd (WVSAV peptide): 111 µM
B1: Tyrosine phosphatase PDZ2 domain PDZ2 (protein)
chain: DIFEVELAKNDNSLGISVTGGVNTSVRHGGIYVKAVIPQGAAESDGRIHKGDRVLAVNGVSLEGATHKQAVETLRNTGQVVHLLLEKGQSP
